Molecules are shown by their SMILES. Where only a bound is given, the exact number is not on record here.

One may read the IC50 as the point on the concentration scale where inhibition reaches its midpoint.

This test deals with T1, c-MET (Homo sapiens, UniProt P08581).
T1 construct: The recombinant DNA His-Tev-MET (956-1390) in pFastBac(Invitrogen); His (N, cleaved yes); Tev (TEV protease site) (N, cleaved yes); made in house; host or cells: SF21 insect cells (baculovirus, pFastBac)
T1 sequence (P08581 956-1390): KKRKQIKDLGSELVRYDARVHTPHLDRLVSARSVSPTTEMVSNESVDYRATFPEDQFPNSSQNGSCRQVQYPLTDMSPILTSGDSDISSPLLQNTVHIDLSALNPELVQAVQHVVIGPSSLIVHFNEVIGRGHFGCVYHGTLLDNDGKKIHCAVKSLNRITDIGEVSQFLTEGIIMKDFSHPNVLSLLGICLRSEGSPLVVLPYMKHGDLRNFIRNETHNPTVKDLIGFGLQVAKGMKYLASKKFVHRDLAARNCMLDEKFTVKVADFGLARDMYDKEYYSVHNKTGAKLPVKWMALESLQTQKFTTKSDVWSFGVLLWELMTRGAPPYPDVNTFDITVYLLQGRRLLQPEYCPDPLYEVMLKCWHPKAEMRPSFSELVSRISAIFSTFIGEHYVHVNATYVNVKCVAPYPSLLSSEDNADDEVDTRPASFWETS
Nature of the test: Test A: HTRF Met test in 96-well format. The test is classed as biochemical. The gist of the method: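 The kinase was the Sf21-expressed MET cytoplasmic domain (956–1390), His tag removed, used at 5 nM with compound (0.17 nM–10 µM, 3% DMSO) in 10 mM MOPS pH 7.4. Poly-GAT 1 µg/ml, 10 µM ATP and 5 mM MgCl2 reacted 10 min at RT. After an EDTA stop, phosphotyrosine was detected by HTRF (665/620 ratio).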
For orientation: TR-FRET usually uses a lanthanide donor and a delayed reading to cut background.
`CC(Oc1cc2sc(NC(=O)NCCN3CCN(C)CC3)nc2cc1F)c1c(Cl)ccc(F)c1Cl` (single isomer, unassigned) [Example 76, 1-{6-[(1R*)-1-(2,6-dichloro-3-fluorophenyl)ethoxy]-5-fluoro-1,3-benzothiazol-2-yl}-3-[2-(4-methylpiperazin-1-yl)ethyl]urea] showed a concentration for half-maximal inhibition (IC50) of under 100 nM.
To `CC(Oc1cc2sc(NC(=O)NCCN3CCN(C)CC3)nc2cc1F)c1c(Cl)ccc(F)c1Cl` (single isomer, unassigned) [Example 77, 1-{6-[(1S*)-1-(2,6-dichloro-3-fluorophenyl)ethoxy]-5-fluoro-1,3-benzothiazol-2-yl}-3-[2-(4-methylpiperazin-1-yl)ethyl]urea] belongs under 100 nM; to `CC(Oc1cc2sc(NC(=O)NCCN3CCCC3)nc2cc1F)c1c(Cl)ccc(F)c1Cl` (single isomer, unassigned) [Example 85, 1-{6-[(1R*)-1-(2,6-dichloro-3-fluorophenyl)ethoxy]-5-fluoro-1,3-benzothiazol-2-yl}-3-[2-(pyrrolidin-1-yl)ethyl]urea], under 100 nM; to `CC(Oc1cc2sc(NC(=O)NCCN)nc2cc1F)c1c(Cl)ccc(F)c1Cl` (single isomer, unassigned) [Example 89, 1-(2-aminoethyl)-3-{6-[(1R*)-1-(2,6-dichloro-3-fluorophenyl)ethoxy]-5-fluoro-1,3-benzothiazol-2-yl}urea], under 100 nM.
The result for `CC(Oc1cc2[nH]c(NC(=O)NCCN3CCOCC3)nc2cc1F)c1c(Cl)ccc(F)c1Cl` (stereo not shown) [Example 6, 1-{6-[1-(2,6-dichloro-3-fluorophenyl)ethoxy]-5-fluoro-1H-benzimidazol-2-yl}-3-(2-morpholin-4-ylethyl)urea] reads under 100 nM.
Compound `O=C(Nc1nc2ccc(OCc3c(Cl)cccc3Cl)cc2[nH]1)C1CC1` [Example 7, N-{6-[(2,6-dichlorobenzyl)oxy]-1H-benzimidazol-2-yl}cyclopropane carboxamide] yielded a concentration for half-maximal inhibition (IC50) of under 100 nM.
To `CC(Oc1cc2sc(NC(=O)NCCN3CCN(C)CC3)nc2cc1F)c1c(Cl)ccc(F)c1Cl` (stereo not shown) [Example 75, 1-{6-[1-(2,6-dichloro-3-fluorophenyl)ethoxy]-5-fluoro-1,3-benzothiazol-2-yl}-3-[2-(4-methylpiperazin-1-yl)ethyl]urea] belongs under 100 nM; to `CC(Oc1cc2sc(NC(=O)NCCCN3CCCC3=O)nc2cc1F)c1c(Cl)ccc(F)c1Cl` (stereo not shown) [Example 78, 1-{6-[1-(2,6-dichloro-3-fluorophenyl)ethoxy]-5-fluoro-1,3-benzothiazol-2-yl}-3-[3-(2-oxopyrrolidin-1-yl)propyl]urea], under 100 nM.
To `CC(Oc1cc2sc(NC(=O)NCCC3CCCN3C)nc2cc1F)c1c(Cl)ccc(F)c1Cl` (stereo not shown) [Example 79, 1-{6-[1-(2,6-dichloro-3-fluorophenyl)ethoxy]-5-fluoro-1,3-benzothiazol-2-yl}-3-[2-(1-methylpyrrolidin-2-yl)ethyl]urea] belongs under 100 nM.
The result for `COCCNC(=O)Nc1nc2cc(F)c(OC(C)c3c(Cl)ccc(F)c3Cl)cc2s1` (stereo not shown) [Example 81, 1-{6-[1-(2,6-dichloro-3-fluorophenyl)ethoxy]-5-fluoro-1,3-benzothiazol-2-yl}-3-(2-methoxyethyl)urea] reads under 100 nM.
Consider `CCN(CC)CCNC(=O)Nc1nc2ccc(OC(C)c3c(Cl)ccc(F)c3Cl)cc2s1` (stereo not shown) [Example 82, 1-{6-[1-(2,6-dichloro-3-fluorophenyl)ethoxy]-1,3-benzothiazol-2-yl}-3-[2-(diethylamino)ethyl]urea], for which the IC50 is under 100 nM.
The result for `CCN(CC)CCCNC(=O)Nc1nc2ccc(OC(C)c3c(Cl)ccc(F)c3Cl)cc2s1` (stereo not shown) [Example 83, 1-{6-[1-(2,6-dichloro-3-fluorophenyl)ethoxy]-1,3-benzothiazol-2-yl}-3-[3-(diethylamino)propyl]urea] reads under 100 nM; that for `CC(Oc1cc2sc(NC(=O)NCCN3CCCC3)nc2cc1F)c1c(Cl)ccc(F)c1Cl` (stereo not shown) [Example 84, 1-{6-[1-(2,6-dichloro-3-fluorophenyl)ethoxy]-5-fluoro-1,3-benzothiazol-2-yl}-3-[2-(pyrrolidin-1-yl)ethyl]urea], under 100 nM.
As to `CC(Oc1cc2sc(NC(=O)NCCN)nc2cc1F)c1c(Cl)ccc(F)c1Cl` (stereo not shown) [Example 88, 1-(2-aminoethyl)-3-{6-[1-(2,6-dichloro-3-fluorophenyl)ethoxy]-5-fluoro-1,3-benzothiazol-2-yl}urea], the IC50 is under 100 nM.
Compound `CC(Oc1cc2sc(NC(=O)NCCN(C)Cc3ccccc3)nc2cc1F)c1c(Cl)ccc(F)c1Cl` (stereo not shown) [Example 94, 1-{2-[benzyl(methyl)amino]ethyl}-3-{6-[1-(2,6-dichloro-3-fluorophenyl)ethoxy]-5-fluoro-1,3-benzothiazol-2-yl}urea] yielded an IC50 of under 100 nM.
To `CC(Oc1cc2sc(NC(=O)NCCN(C)C(=O)OC(C)(C)C)nc2cc1F)c1c(Cl)ccc(F)c1Cl` (stereo not shown) [Example 95] belongs under 100 nM; to `CNCCNC(=O)Nc1nc2cc(F)c(OC(C)c3c(Cl)ccc(F)c3Cl)cc2s1` (stereo not shown) [Example 96, 1-{6-[1-(2,6-dichloro-3-fluorophenyl)ethoxy]-5-fluoro-1,3-benzothiazol-2-yl}-3-[2-(methylamino)ethyl]urea], under 100 nM.
The result for `CC(Oc1cc2sc(NC(=O)NCCOCc3ccccc3)nc2cc1F)c1c(Cl)ccc(F)c1Cl` (stereo not shown) [Example 97, 1-[2-(benzyloxy)ethyl]-3-{6-[1-(2,6-dichloro-3-fluorophenyl)ethoxy]-5-fluoro-1,3-benzothiazol-2-yl}urea] reads under 100 nM.
The result for `CC(Oc1cc2sc(NC(=O)NCCO)nc2cc1F)c1c(Cl)ccc(F)c1Cl` (stereo not shown) [Example 98, 1-{6-[1-(2,6-dichloro-3-fluorophenyl)ethoxy]-5-fluoro-1,3-benzothiazol-2-yl}-3-(2-hydroxyethyl)urea] reads under 100 nM.
